# Reference: article PMC7382816 (BMC Pharmacology & Toxicology, 2020)
# Where two headings read alike, the source gives them in different places.
# Experiment: Single-dose pharmacokinetics in healthy volunteers under fasting and fed (high-fat breakfast) conditions, plasma concentrations by HPLC-MS, non-compartmental analysis
# Type: in vivo, human
# Design: Ke: unit not given here
# From the text: The bioequivalence clinical trials were phase I, randomized, open-label, crossover, single-centre, with two periods separated by a 7-day washout stage. Subjects were randomised to one of the two treatment sequences, RT or TR where R was the reference formulation and T was the test formulation. Each of the clinical trial was crossover for evaluation of a test formulation compared to a reference formulation either under fed or fasting conditions. […] The treatments were allocated in a balanced manner on every inclusion day (blocks of 4 subjects). Our study adheres to CONSORT guidelines. […] Sample processing, genotyping for CYP2C19 and drug quantification were performed according to Román et al. […] Pharmacokinetic parameters were estimated from the plasma concentration–time data by non-compartmental analysis (WinNonlin Professional, version 2.0., Pharsight Corporation, USA) as reported by Román et al. […] WinNonLin Professional software version 2.0 was used for the statistical analysis. Pharmacokinetic parameters were log-transformed, and AUC and Cmax were adjusted for dose and weight. The values of pharmacokinetic parameters were expressed as mean ± standard deviation.
# [1] = Fast, men, single oral dose, mean ± SD
# [2] = both sexes, human, plasma, oral, only CYP2C19*1/*1 subjects, Fast, men and women, mean ± SD
# [3] = both sexes, human, plasma, oral, only CYP2C19*1/*1 subjects, Fed, men and women, mean ± SD
# [4] = both sexes, human, plasma, po, Fast, all subjects, single oral dose, mean ± SD
# [5] = both sexes, human, plasma, po, Fed (high-fat breakfast), all subjects, single oral dose, mean ± SD
# [6] = female, human, plasma, oral, only CYP2C19*1/*1 subjects, Fast, women, mean ± SD
# [7] = female, human, plasma, oral, only CYP2C19*1/*1 subjects, Fed, women, mean ± SD
# [8] = female, human, plasma, po, Fast, women, single oral dose, mean ± SD
# [9] = female, human, plasma, po, Fed, women, single oral dose, mean ± SD
# [10] = male, human, plasma, oral, only CYP2C19*1/*1 subjects, Fast, men, mean ± SD
# [11] = male, human, plasma, oral, only CYP2C19*1/*1 subjects, Fed, men, mean ± SD
# [12] = male, human, plasma, po, Fast, men, single oral dose, mean ± SD
# [13] = male, human, plasma, po, Fed, men, single oral dose, mean ± SD
# [14] = only CYP2C19*1/*1 subjects, Fast, men, mean ± SD
# [15] = only CYP2C19*1/*1 subjects, Fast, women, mean ± SD
# [16] = only CYP2C19*1/*1 subjects, Fed, men and women, mean ± SD
# [17] = only CYP2C19*1/*1 subjects, Fed, men, mean ± SD
structure (smiles),measurement,setting,value
"COc1ccc2[nH]c([S+]([O-])Cc3ncc(C)c(OC)c3C)nc2c1 (stereo not drawn) [Omeprazole, omeprazole]",Ke,"Fast, all subjects, single oral dose, mean ± SD",0.76 ± 0.29
same,Cmax,[1],858.8 ± 432.6 ng/mL
same,Ke,[1],0.70 ± 0.29
same,Ke,"Fast, women, single oral dose, mean ± SD",0.82 ± 0.29
same,Ke,"Fed (high-fat breakfast), all subjects, single oral dose, mean ± SD",0.67 ± 0.32
same,Ke,"Fed, men, single oral dose, mean ± SD",0.69 ± 0.35
same,Ke,"Fed, women, single oral dose, mean ± SD",0.65 ± 0.30
same,AUC(0-inf),[2],1710 ± 1300 ng·h/mL
same,CL/F,[2],9.5 mL/min/kg
same,Vd/F,[2],0.69 ± 0.38 L/kg
same,half-life,[2],1 ± 0.4 h
same,Cmax,"both sexes, human, plasma, oral, only CYP2C19*1/*1 subjects, Fast, men and women, mean ± SD, read-out: Cmax",860 ± 395 ng/mL
same,Tmax,"both sexes, human, plasma, oral, only CYP2C19*1/*1 subjects, Fast, men and women, mean ± SD, read-out: Tmax",1.8 ± 0.6 h
same,AUC(0-inf),[3],1520 ± 1290 ng·h/mL
same,CL/F,[3],10.3 mL/min/kg
same,Vd/F,[3],0.77 ± 0.43 L/kg
same,half-life,[3],1 ± 0.4 h
same,Cmax,"both sexes, human, plasma, oral, only CYP2C19*1/*1 subjects, Fed, men and women, mean ± SD, read-out: Cmax",604 ± 363 ng/mL
same,Tmax,"both sexes, human, plasma, oral, only CYP2C19*1/*1 subjects, Fed, men and women, mean ± SD, read-out: Tmax",4.9 h
same,Tmax,"both sexes, human, plasma, oral, under fasting conditions, range among subjects, read-out: Tmax range",1 to 3.5 h
same,Tmax,"both sexes, human, plasma, oral, under fed conditions, range among subjects, read-out: Tmax range",1 to 17 h
same,AUC(0-inf),[4],2190 ± 2010 ng·h/mL
same,CL/F,[4],8.83 mL/min/kg
same,Vd/F,[4],0.64 ± 0.34 L/kg
same,Cmax,"both sexes, human, plasma, po, Fast, all subjects, single oral dose, mean ± SD, read-out: Cmax",931 ± 435 ng/mL
same,Tmax,"both sexes, human, plasma, po, Fast, all subjects, single oral dose, mean ± SD, read-out: Tmax",2 ± 0.7 h
same,AUC(0-inf),[5],1930 ± 1880 ng·h/mL
same,CL/F,[5],10.7 mL/min/kg
same,Vd/F,[5],1.02 ± 1.07 L/kg
same,Cmax,"both sexes, human, plasma, po, Fed (high-fat breakfast), all subjects, single oral dose, mean ± SD, read-out: Cmax",683 ± 394 ng/mL
same,Tmax,"both sexes, human, plasma, po, Fed (high-fat breakfast), all subjects, single oral dose, mean ± SD, read-out: Tmax",4.9 ± 1.1 h
same,AUC lower under fed conditions,"fed vs fasting, all subjects",12%
same,Cmax lower under fed conditions,"fed vs fasting, all subjects",27%
same,Delay of mean Tmax (absorption) by food,"fed vs fasting, all subjects",about 3 h
same,half-life higher under fed conditions,"fed vs fasting, all subjects",15%
same,Delay of Tmax by food,"fed vs fasting, only subjects with CYP2C19*1/*1",3 h
same,AUC(0-inf),[6],1980 ± 1220 ng·h/mL
same,CL/F,[6],8.83 mL/min/kg
same,Vd/F,[6],0.69 ± 0.46 L/kg
same,half-life,[6],1 ± 0.3 h
same,AUC(0-inf),[7],1710 ± 1250 ng·h/mL
same,CL/F,[7],9.5 mL/min/kg
same,Vd/F,[7],0.84 ± 0.54 L/kg
same,Cmax,"female, human, plasma, oral, only CYP2C19*1/*1 subjects, Fed, women, mean ± SD, read-out: Cmax",640 ± 275 ng/mL
same,Tmax,"female, human, plasma, oral, only CYP2C19*1/*1 subjects, Fed, women, mean ± SD, read-out: Tmax",5.4 ± 0.4 h
same,AUC(0-inf),[8],2020 ± 1500 ng·h/mL
same,CL/F,[8],9.33 mL/min/kg
same,Vd/F,[8],0.63 ± 0.31 L/kg
same,half-life,[8],1 ± 0.4 h
same,Cmax,"female, human, plasma, po, Fast, women, single oral dose, mean ± SD, read-out: Cmax",999 ± 438 ng/mL
same,Tmax,"female, human, plasma, po, Fast, women, single oral dose, mean ± SD, read-out: Tmax",1.9 ± 0.6 h
same,AUC(0-inf),[9],1720 ± 1400 ng·h/mL
same,CL/F,[9],12.2 mL/min/kg
same,Vd/F,[9],1.3 ± 1.38 L/kg
same,Cmax,"female, human, plasma, po, Fed, women, single oral dose, mean ± SD, read-out: Cmax",640 ± 640 ng/mL
same,Tmax,"female, human, plasma, po, Fed, women, single oral dose, mean ± SD, read-out: Tmax",5.4 ± 1 h
same,AUC(0-inf),[10],1470 ± 1400 ng·h/mL
same,CL/F,[10],10.3 mL/min/kg
same,Vd/F,[10],0.68 ± 0.46 L/kg
same,Cmax,"male, human, plasma, oral, only CYP2C19*1/*1 subjects, Fast, men, mean ± SD, read-out: Cmax",654 ± 306 ng/mL
same,AUC(0-inf),[11],1410 ± 1160 ng·h/mL
same,CL/F,[11],10.5 mL/min/kg
same,Vd/F,[11],0.73 ± 0.38 L/kg
same,half-life,[11],1 ± 0.4 h
same,Tmax,"male, human, plasma, oral, only CYP2C19*1/*1 subjects, Fed, men, mean ± SD, read-out: Tmax",4.3 ± 1 h
same,AUC(0-inf),[12],2380 ± 2480 ng·h/mL
same,CL/F,[12],8.33 mL/min/kg
same,Vd/F,[12],0.65 ± 0.38 L/kg
same,Tmax,"male, human, plasma, po, Fast, men, single oral dose, mean ± SD, read-out: Tmax",2.1 ± 0.7 h
same,AUC(0-inf),[13],2140 ± 2280 ng·h/mL
same,CL/F,[13],9.5 mL/min/kg
same,Vd/F,[13],0.75 ± 0.52 L/kg
same,Cmax,"male, human, plasma, po, Fed, men, single oral dose, mean ± SD, read-out: Cmax",725 ± 448 ng/mL
same,Tmax,"male, human, plasma, po, Fed, men, single oral dose, mean ± SD, read-out: Tmax",4.5 ± 0.9 h
same,Ke,"only CYP2C19*1/*1 subjects, Fast, men and women, mean ± SD",0.81 ± 0.23
same,Ke,[14],0.82 ± 0.25
same,Tmax,[14],2.0 ± 0.7 h
same,Cmax,[15],1094.3 ± 366.6 ng/mL
same,Ke,[15],0.79 ± 0.23
same,Ke,[16],0.80 ± 0.36
same,Tmax,[16],4.7 ± 1.0 h
same,Cmax,[17],582.8 ± 419.1 ng/mL
same,Ke,[17],0.84 ± 0.39
same,Ke,"only CYP2C19*1/*1 subjects, Fed, women, mean ± SD",0.72 ± 0.32
